# “Also recorded” adds a separate entry of the source.
# What was measured:
# [1] = Hygroscopicity of crystal (weight change on storage); assay type: physicochemical; conditions: 40° C. and 75% RH, hydrochloride; for hygroscopicity (level, in words): 2 weeks, based on weight change
# Experimental: Hygroscopicity of Crystal
# Form I to III crystals of hydrochloride, form I crystal of nitrate, form I and II crystals of sulfate, form I crystal of methanesulfonate, form I and II crystals of p-toluenesulfonate, and form I and II crystals of maleate of N-{2-chloro-4-[(6,7-dimethoxy-4-quinolyl)oxy]phenyl}-N′-(5-methyl-3-isoxazolyl)urea were stored under conditions of 40° C. and 75% RH for 2 weeks. Before and after the storage, the weight of each crystal was measured to determine a difference in weight between before the storage and after the storage.
# For each crystal, the hygroscopicity was evaluated based on the weight change.
# [2] = Stability of crystal against physical stress (grinding in a mortar); assay type: physicochemical; conditions: ground in an agate or porcelain mortar, hydrochloride
# Experimental: (§1) X-ray diffraction patterns of crystals were taken using Cu-Kα radiation (40 kV, 40 mA, λ=1.541 angstroms) with a powder X-ray diffraction apparatus (X-ray diffraction RINT DMAX-2000, manufactured by Rigaku Industrial Corporation) (scanning speed: 5 degrees/min, scanning range: 5.000 to 40.000 degrees, filter: Kβ filter). Based on powder X-ray diffraction patterns thus obtained, peak positions and relative intensity (%) were determined for peaks with a relative intensity of not less than 20%.
# Stability of Crystal Against Physical Stress
# Each of form I to III crystals of hydrochloride, form I crystal of nitrate, form I and II crystals of sulfate, form I crystal of methanesulfonate, form I and II crystals of p-toluenesulfonate, and form I and II crystals of maleate of N-{2-chloro-4-[(6,7-dimethoxy-4-quinolyl)oxy]phenyl}-N′-(5-methyl-3-isoxazolyl)urea was ground in a mortar. In grinding each crystal in the mortar, about 1 mg of each crystal sample was placed and ground in an agate mortar or a porcelain mortar. For each sample before and after grinding, a powder X-ray diffraction chart was measured by method 1 to evaluate the stability of the crystal against physical stress.
# [3] = Stability of crystal under heating (73° C.) conditions; assay type: physicochemical; conditions: stored at 73° C. for 2 weeks, hydrochloride
# Experimental: as §1
# Stability of Crystal Under Heating (73° C.) Conditions
# (§2) Form I to III crystals of hydrochloride, form I crystal of nitrate, form I and II crystals of sulfate, form I crystal of methanesulfonate, form I and II crystals of p-toluenesulfonate, and form I and II crystals of maleate of N-{2-chloro-4-[(6,7-dimethoxy-4-quinolyl)oxy]phenyl}-N′-(5-methyl-3-isoxazolyl)urea were stored at 73° C. for 2 weeks. […]
# [4] = Suspending crystal in aqueous methylcellulose solution (administration solution for rodents); assay type: physicochemical
# From the text: In the most preferred embodiment of the present invention, the crystal of a salt according to the present invention is form I crystal of N-{2-chloro-4-[(6,7-dimethoxy-4-quinolyl)oxy]phenyl}-N′-(5-methyl-3-isoxazolyl)urea hydrochloride. This form I crystal of hydrochloride has all physicochemical properties that are desired as pharmaceutical preparations for oral administration. The powder X-ray diffraction pattern of form I crystal of hydrochloride is not similar to that of other crystalline forms of hydrochloride (for example, form II crystal and form III crystal). Therefore, the mixing ratio of crystalline forms can be easily determined. […] Therefore, problems with administration are less likely to occur. Also in this respect, form I crystal of hydrochloride is advantageous.
# [5] = Stability of crystal under high humidity (40° C., 75% RH) conditions; assay type: physicochemical; conditions: stored at 40° C. and 75% RH for 2 weeks, hydrochloride
# Experimental: as §1
# Stability of Crystal Under High Humidity (40° C., 75% RH) Conditions
# as §2, with “under conditions of 40°” for “at 73°”, “C. and 75% RH” for “C.”
# [6] = test system: tumor; conditions: in vivo; cited from earlier work
# [7] = listed as form I crystal of hydrochloride
# [8] = listed as form III crystal of hydrochloride
Compound,"hygroscopicity (level, in words) [1]",weight change (hygroscopicity) After 1 week [1] [%],weight change (hygroscopicity) After 2 weeks [1] [%],weight change (hygroscopicity) After 2 days [1] [%],"stability of crystal against physical stress (powder X-ray diffraction before and after grinding) [2, 7]","stability of crystal under high temperature conditions (change of powder X-ray diffraction chart) [3, 7]",formation of gel on suspending [4],"stability of crystal under high humidity conditions (change of powder X-ray diffraction chart) [5, 7]","stability of crystal against physical stress (powder X-ray diffraction before and after grinding) [2, 8]","stability of crystal under high temperature conditions (change of powder X-ray diffraction chart) [3, 8]","stability of crystal under high humidity conditions (change of powder X-ray diffraction chart) [5, 8]",tumor enhancement inhibitory activity [6]
"COc1cc2nccc(Oc3ccc(NC(=O)Nc4cc(C)on4)c(Cl)c3)c2cc1OC.Cl [Form I crystal of hydrochloride, N-{2-chloro-4-[(6,7-dimethoxy-4-quinolyl)oxy]phenyl}-N′-(5-methyl-3-isoxazolyl)urea hydrochloride]",low level of hygroscopicity; also recorded: on a low level,0.01,0.00,0.00,excellent stability,excellent stability,does not undergo a deterioration that results in the formation of gel,excellent stability,–,–,–,–
"COc1cc2nccc(Oc3ccc(NC(=O)Nc4cc(C)on4)c(Cl)c3)c2cc1OC.Cl [Form III crystal of hydrochloride, N-{2-chloro-4-[(6,7-dimethoxy-4-quinolyl)oxy]phenyl}-N′-(5-methyl-3-isoxazolyl)urea hydrochloride]",highly hygroscopic,1.49,1.93,1.06,–,–,–,–,lowering in peak intensity,converted to form II crystal,converted to form I crystal,–
"COc1cc2nccc(Oc3ccc(NC(=O)Nc4cc(C)on4)c(Cl)c3)c2cc1OC [N-{2-chloro-4-[(6,7-dimethoxy-4-quinolyl)oxy]phenyl}-N′-(5-methyl-3-isoxazolyl)urea]",–,–,–,–,–,–,–,–,–,–,–,has tumor enhancement inhibitory activity in vivo

# Source: patent US20060052415A1, “N-{2-chloro-4-[(6,7-dimethoxy-4-quinolyl)oxy]phenyl}-n'-(5-methyl-3-isoxazolyl)urea salt in crystalline form” (KIRIN BEER KABUSHIKI KAISHA, priority 2002, published 2006)
